{
  "source": "patent US7932396B2",
  "about": "“2-pyridinylcycloalkylbenzamide derivatives and their use as fungicides” (Bayer Cropscience AG, priority 2005, dated 2011)",
  "key": {"Alternaria brassicae": {"tested_on": "Alternaria brassicae", "assay": "In vivo test on Alternaria brassicae (leaf spot of crucifers) on radish plants", "details": "330 ppm; comparison compounds of WO 01/11965", "procedure": "(§1) The active ingredients tested are prepared by homogenization in a mixture of DMSO (dimethylsulfoxid)/acetone/tween/water. This suspension is then diluted with water to obtain the desired active material concentration.\nRadish plants (Pernot variety) in starter cups, sown on a 50/50 peat soil-pozzolana substrate and grown at 18-20° C., are treated at the cotyledon stage by spraying with the aqueous suspension described above.\nPlants, used as controls, are treated with an aqueous solution not containing the active material.\nAfter 24 hours, the plants are contaminated by spraying them with an aqueous suspension of Alternaria brassicae spores (40,000 spores per cm^3). The spores are collected from a 12-13-day-old culture.\nThe contaminated radish plants are incubated for 6-7 days at about 18° C., under a humid atmosphere.\nGrading is carried out 6 to 7 days after the contamination, in comparison with the control plants."}, "Botrytis cinerea": {"tested_on": "Botrytis cinerea", "assay": "In vivo test on Botrytis cinerea (gherkin grey mould) on gherkin plants", "details": "330 ppm; comparison compounds of WO 01/11965", "procedure": "as §1\nGherkin plants (Petit Vert de Paris variety) in starter cups, sown on a 50/50 peat soil-pozzolana substrate and grown at 18-20° C., are treated at the cotyledon Z11 stage by spraying with the aqueous suspension described above. Plants, used as controls, are treated with an aqueous solution not containing the active material.\nAfter 24 hours, the plants are contaminated by depositing drops of an aqueous suspension of Botrytis cinerea spores (150,000 spores per ml) on upper surface of the leaves. The spores are collected from a 15-day-old culture and are suspended in a nutrient solution composed of: • 20 g/L of gelatin • 50 g/L of cane sugar • 2 g/L of NH4NO3 • 1 g/L of KH2PO4\nThe contaminated gherkin plants are settled for 5/7 days in a climatic room at 15-11° C. (day/night) and at 80% relative humidity.\nGrading is carried out 5/7 days after the contamination, in comparison with the control plants."}, "Peronospora parasitica": {"tested_on": "Peronospora parasitica", "assay": "Efficacy against Peronospora parasitica", "format": "in vivo", "details": "330 ppm; comparison compound of WO 01/11965"}},
  "data": [
    {"smiles": "O=C(Cc1cccs1)NCc1ncc(C(F)(F)F)cc1Cl", "note": "[compound 101, N-{[3-chloro-5-(trifluoromethyl)-2-pyridinyl]methyl}-5-thienylacetamide]", "values": [
      {"measurement": "effectiveness on Alternaria brassicae", "setting": "Alternaria brassicae", "result": "poor efficacy"},
      {"measurement": "effectiveness on Botrytis cinerea", "setting": "Botrytis cinerea", "result": "no efficacy"},
      {"measurement": "efficacy against Peronospora parasitica", "setting": "Peronospora parasitica", "result": "no efficacy"}
    ]},
    {"smiles": "CCNC(=O)C(Cc1ncc(C(F)(F)F)cc1Cl)NC(=O)c1cccc([N+](=O)[O-])c1", "note": "(stereo not drawn) [compound 307, N-{1-ethylcarbamoyl-2-[3-chloro-5-(trifluoromethyl)-2-pyridinyl]ethyl}-3-nitrobenzamide]", "values": [
      {"measurement": "effectiveness on Alternaria brassicae", "setting": "Alternaria brassicae", "result": "poor effectiveness"},
      {"measurement": "effectiveness on Botrytis cinerea", "setting": "Botrytis cinerea", "result": "zero effectiveness"}
    ]},
    {"smiles": "CCNC(=O)C(Cc1ncc(C(F)(F)F)cc1Cl)NC(=O)c1ccc(Cl)cc1", "note": "(stereo not drawn) [compound 306, N-{1-ethylcarbamoyl-2-[3-chloro-5-(trifluoromethyl)-2-pyridinyl]ethyl}-4-chlorobenzamide]", "values": [
      {"measurement": "effectiveness on Botrytis cinerea", "setting": "Botrytis cinerea", "result": "zero effectiveness"}
    ]},
    {"smiles": "CCNC(=O)C(Cc1ncc(C(F)(F)F)cc1Cl)NC(=O)c1ccccc1", "note": "(stereo not drawn) [compound 304, N-{1-ethylcarbamoyl-2-[3-chloro-5-(trifluoromethyl)-2-pyridinyl]-ethyl}-benzamide]", "values": [
      {"measurement": "effectiveness on Botrytis cinerea", "setting": "Botrytis cinerea", "result": "zero effectiveness"}
    ]},
    {"smiles": "CNC(=O)C(Cc1ncc(C(F)(F)F)cc1Cl)NC(=O)c1ccc(-c2ccccc2)cc1", "note": "(stereo not drawn) [compound 316, N-{1-methylcarbamoyl-2-[3-chloro-5-(trifluoromethyl)-2-pyridinyl]-ethyl}-4-phenylbenzamide]", "values": [
      {"measurement": "effectiveness on Alternaria brassicae", "setting": "Alternaria brassicae", "result": "poor effectiveness"},
      {"measurement": "effectiveness on Botrytis cinerea", "setting": "Botrytis cinerea", "result": "zero effectiveness"}
    ]},
    {"smiles": "CCNC(=O)C(Cc1ncc(C(F)(F)F)cc1Cl)NC(=O)c1ccccc1Br", "note": "(stereo not drawn) [compound 310, N-{1-ethylcarbamoyl-2-[3-chloro-5-(trifluoromethyl)-2-pyridinyl]ethyl}-2-bromobenzamide]", "values": [
      {"measurement": "effectiveness on Botrytis cinerea", "setting": "Botrytis cinerea", "result": "zero effectiveness"}
    ]},
    {"smiles": "CNC(=O)C(Cc1ncc(C(F)(F)F)cc1Cl)NC(=O)c1ccc(OC)cc1", "note": "(stereo not drawn) [compound 315, N-{1-methylcarbamoyl-2-[3-chloro-5-(trifluoromethyl)-2-pyridinyl]ethyl}-4-methoxybenzamide]", "values": [
      {"measurement": "effectiveness on Botrytis cinerea", "setting": "Botrytis cinerea", "result": "zero effectiveness"}
    ]},
    {"smiles": "CNC(=O)C(Cc1ncc(C(F)(F)F)cc1Cl)NC(=O)c1ccccc1", "note": "(stereo not drawn) [compound 314, N-{1-methylcarbamoyl-2-[3-chloro-5-(trifluoromethyl)-2-pyridinyl]ethyl}-benzamide]", "values": [
      {"measurement": "effectiveness on Botrytis cinerea", "setting": "Botrytis cinerea", "result": "zero effectiveness"}
    ]}
  ]
}
